Experimental data: the NIST ThermoML archive (doi:10.1016/j.jct.2017.02.025)
± gives the expanded uncertainty stated by the source.

How the values were obtained:
[1] = Crystal; DTA
[2] = Molar enthalpy of transition or fusion; conditions: Crystal; DSC

Normal melting temperature [1]: 82.8 ± 1.1 °C
Molar enthalpy of transition or fusion [2]: 108 ± 2.5 kJ/mol
SMILES: CCCCCCCCCCCCCCCCCCCCCCCCCCCCO [1-octacosanol]
